According to patent publication US20130005573A1, “COMPOSITIONS AND METHODS OF USE FOR KETONES AND ALDEHYDES AS HERBICIDES” (North Carolina State University, priority 2010, published 2013):

What was measured:
wild henbit = experiment: Herbicidal spray treatment on henbit under winter field conditions; format: in vivo, henbit (Lamium amplexicaule)
Procedure: FIG. 1 is an image showing results of tests used to determine the herbicidal activity of a spray treatment comprising the use of a 5% solution of 2-undecanone in ethanol. The image was captured approximately 2 hours after the spray-applications of materials to henbit under winter field conditions. Both of the weed groups shown in FIG. 1 are groups of wild henbit. Treatment of the group of henbit plants on the left side of FIG. 1 (control group) consisted of spraying the group with 100 ml of the carrier as a fine mist; the carrier comprised absolute ethanol (without the herbicide). Treatment of the group of henbit plants on the right side of FIG. 1 (treatment group) consisted of spraying the group with 100 ml of the herbicide/carrier mixture (5 wt % of 2-undecanone/100 mL solution) as a fine mist. The image was captured 2 hours after treatment.
Because the sprayer produced a very fine mist in each case, and there may have been spray drift (from the wind) during these treatments, evaporation and dissipation of these misty sprays occurred to some degree before and while each spray hit its targeted group of plant material.
Experiment 2 is similar to Experiment 1, in that it tests the herbicidal activity of an experimental spray treatment on henbit. The herbicidal spray treatments of Experiment 2 comprised the use of a 20% solution of 2-undecanone in ethanol (20 wt % of 2-undecanone/100 mL solution). The experimental results are featured in FIGS. 2A, 2B and 2C, the henbit treatment group receiving the 2-undecanone spray treatment is located on the right side of the image shown in FIG. 2A. The control group was treated with a spray comprising just the carrier (absolute ethanol); the henbit treatment group receiving this carrier-only spray treatment (control group) is located on the left side of the image shown in FIG. 2A. The image was captured 4 days after the spray-applications of these materials to the groups of henbit under winter field conditions. […]

bean plants = experiment: Herbicidal spray treatment on bean plants; format: in vivo; conditions: 20% solution (wt/vol) in absolute ethanol, sprayed to run off
Procedure: Experiment 3 exemplifies the herbicidal activity of 2-undecanone on bean plants. The bean plant on the left in FIG. 3 was treated with a 20% solution (wt/vol) of 2-undecanone in a carrier comprising absolute ethanol. The bean plant on the right was treated with the absolute ethanol carrier only. Treatments were made by spraying each plant until “run off” levels were achieved. […] In contrast, the plant on the right (ethanol control) never differed in appearance from the no-spray controls (not shown). […] All treatments of the bean plants described above were performed in North Carolina during the summer months under a shelter; the bean plants were protected from the elements but were watered regularly. The plants also received direct sunlight for about 8 hours from approximately noon until sunset.

Tomato seedlings = experiment: Greenhouse fine mist foliar spray on tomato seedlings; format: in vivo
Procedure: (§1) This experiment was conducted in a greenhouse setting. Tomato seedlings in 4 to 6 true-leaf stage and 3-5 inch tall potato plants were treated with a fine mist spray comprising a solution of >2% 2-undecanone in 95% ethanol.

wild-type grass = experiment: Spray treatment of test plots of wild-type grass; format: in vivo, grass (monocotyledon)
Procedure: Two experiments were initiated that tested the activity of an acyclic ketone on a common monocotyledon. The test plots comprised similar areas of wild-type grass. The area of each test plot of grass was defined to be the area within a square measuring approximately 15 inches on a side. The experiments were conducted using two different formulations of the same test material: the formulation tested in Experiment 6 comprised a 5% (wt/vol) mixture of undecanone in absolute ethanol; the formulation tested in Experiment 7 comprised a 5% (wt/vol) mixture of undecanone in water.
A measured amount of each formulation was sprayed onto its appropriate test area using a hand held spray bottle; the spray bottle produced a fine mist in each case. […] The details of each experiment are provided separately below.
In Experiment 6, 40 ml of a 5% formulation of the test material in ethanol (wt/vol) was evenly sprayed on one of two adjacent test plots of grass. This treated plot was located on the right side of the test plot pair. The adjacent test plot (left; control plot) was sprayed in an identical fashion with a spray bottle containing 40 mL of the ethanol carrier as a control; the time difference for completing the spraying of the two grassy test plots was less than 2 minutes. The effects of the spray formulations on the test plots were noted over time and images were captured at several time points for later comparisons (see FIGS. 5A, 5B and 5C for images). FIGS. 5A, 5B and 5C are images showing the effects of spraying a 5% formulation of the test material in ethanol and ethanol control on test plots of grass in accordance with embodiments of the present disclosure.
Visible differences were observed within a 30 minute period following the spray applications of control and test compound formulations comprising ethanol. […] The appearance of the plots at the one-hour time point are shown in the FIG. 5B image, and the appearance of the plots at the twenty four-hour time point are shown in the FIG. 5C image.
The conditions and amounts of materials used in Experiment 7 were similar to those employed in Experiment 6, with the exception that both the formulation comprising the active ingredient and the solution of carrier comprised water in the place of ethanol. In Experiment 7, the early toxicity effects were delayed compared to the early toxicity effects noted in Experiment 6. […] The appearance of the areas treated with the formulation comprising water were photographed at the 24 hour time point and can be seen in the image of FIG. 6B.

potato plants = experiment: Greenhouse fine mist foliar spray on potato plants; format: in vivo; conditions: >2% in 95% ethanol
Procedure: as §1

CCCCCCCCCC(C)=O [2-undecanone]
changes in color and vitality of treated henbit plants (wild henbit; 5% solution in ethanol, 100 ml fine mist, below run-off, approximately 2 hours after treatment): had lost much of their green color and vitality, and had turned yellow
overall state of treated henbit group versus control (wild henbit; 20% (wt/vol) in absolute ethanol, 100 ml spray, 4 days after treatment): appeared to be dead or dying
effect on stems of treated henbit plants (wild henbit; 20% (wt/vol) in absolute ethanol, 100 ml spray, below run-off, 4 days after treatment): had become significantly weakened and had become flaccid
leaf color of treated bean plant (bean plants; 2 weeks after treatment): yellow
onset of change in appearance of treated bean plant (bean plants; day of treatment): started to change its appearance and character shortly after the spray treatment was complete
subsequent outcome after foliage death (Tomato seedlings; >2% in 95% ethanol, fine mist to foliage): plant death
time to death of the plants' foliage (Tomato seedlings; >2% in 95% ethanol, fine mist to foliage, seedlings in 4 to 6 true-leaf stage): ≤ 24 h
effect on tomato plants at low concentration (Tomato seedlings; less than 1% in 95% ethanol, similar application): death of foliage followed by re-foliation some days later
course of herbicidal toxicity over time (wild-type grass; Experiment 6: 5% (wt/vol) in ethanol, up to 24 hours): increase with time
time to visible differences versus control plot (wild-type grass; Experiment 6: 40 ml of 5% (wt/vol) in ethanol): ≤ 30 min
appearance of treated grass (wild-type grass; Experiment 6: 40 ml of 5% (wt/vol) in ethanol, after 30 minutes): appeared brown
time to first toxicity effects after spraying (wild-type grass; Experiment 7: 5% (wt/vol) in water): 2 to 3 h
visual appearance of water-carrier plots compared with ethanol-carrier plots (wild-type grass; Experiment 7: 5% (wt/vol) in water, at 24 hours): similar
time to death of the plants' foliage (potato plants; 3-5 inch tall plants): ≤ 24 h
subsequent outcome after foliage death (potato plants; fine mist to foliage): plant death
